The record followed here is PubChem BioAssay (NCI).

Some test systems named below: NCI-H226 lung; MALME-3M melanoma; HOP-92 NSCLC; DU-145 prostate; A498 renal; SR leukemia; NCI-H23 lung; BT-549 breast; SK-MEL-2 melanoma; U251 CNS.
Common to all, as to experiment: NCI tumour cell line growth inhibition, 48 h

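Assay format: 96-well plates, 48-hour exposure. GI50 marks 50% less growth. TGI denotes the concentration required for complete inhibition of growth.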 A value given as a limit tells only on which side of the number the result lay.

`CCN1CCN(c2cc(C)c3cc(NC(=O)c4ccc(OC)c(OC)c4)ccc3n2)CC1`: the GI50 with NCI-H226 lung is above 54.7 µM; in the experiment on MALME-3M melanoma it was 13.3 µM; in the experiment with HOP-92 NSCLC, 13.4 µM; in the experiment on DU-145 prostate, above 60.6 µM; in the experiment on A498 renal, 16.4 µM; in the experiment with SR leukemia, 1.44 µM. In addition, the GI50 was 50.5 µM in the experiment on NCI-H23 lung, above 33 µM in the experiment on BT-549 breast, above 40.5 µM in the experiment on SK-MEL-2 melanoma and above 50.5 µM with U251 CNS. For the same compound, the TGI in the experiment on NCI-H226 lung was above 100 µM; in the experiment with MALME-3M melanoma, 31.3 µM; in the experiment with HOP-92 NSCLC it was 85.5 µM; in the experiment with DU-145 prostate, above 100 µM; in the experiment on A498 renal it was 41.1 µM; with SR leukemia it was above 30.5 µM. For the same compound, the TGI was above 100 µM with NCI-H23 lung, above 100 µM in the experiment with BT-549 breast, above 61.8 µM with SK-MEL-2 melanoma and above 100 µM in the experiment on U251 CNS.
In the case of `CC(=O)ON1CCCC(P(=O)(OCCSC(=O)C(C)(C)C)OCCSC(=O)C(C)(C)C)C1=O` (stereo not given), the GI50 was 2.27 µM in the experiment on NCI-H226 lung; 0.537 µM in the experiment with MALME-3M melanoma; 0.87 µM with HOP-92 NSCLC; 3.08 µM in the experiment on DU-145 prostate; 0.304 µM in the experiment with A498 renal; 0.571 µM in the experiment on SR leukemia. Besides, the GI50 in the experiment on NCI-H23 lung is 3.3 µM; in the experiment with BT-549 breast it was 0.979 µM; in the experiment on SK-MEL-2 melanoma, 4.47 µM; with U251 CNS, 1.02 µM. In addition, the TGI in the experiment with NCI-H226 lung was 26.4 µM; in the experiment on MALME-3M melanoma it was 9.05 µM; in the experiment on HOP-92 NSCLC, 31.2 µM; with DU-145 prostate, above 100 µM; in the experiment with A498 renal, 3.49 µM; in the experiment on SR leukemia, 64.2 µM. The TGI amounted to 28.5 µM in the experiment with NCI-H23 lung, 7.24 µM in the experiment with BT-549 breast, 40 µM with SK-MEL-2 melanoma and 64.3 µM in the experiment with U251 CNS.
Take `COC(=O)c1c2c(c(C)[n+]([O-])c1C)C(=O)C=C(NCc1ccc(F)cc1)C2=O`: the GI50 in the experiment with NCI-H226 lung was 1.77 µM; with MALME-3M melanoma it was 0.153 µM; with HOP-92 NSCLC, 1.72 µM; in the experiment with DU-145 prostate, 1.15 µM; in the experiment on A498 renal, 1.26 µM; with SR leukemia, 0.639 µM. Also, the GI50 in the experiment on NCI-H23 lung is 0.733 µM; in the experiment on BT-549 breast it was 1.3 µM; in the experiment with SK-MEL-2 melanoma it was 1.11 µM; in the experiment on U251 CNS it was 0.999 µM. Moreover, the TGI in the experiment with NCI-H226 lung was 4.13 µM; in the experiment with MALME-3M melanoma, 0.389 µM; in the experiment on HOP-92 NSCLC, 3.83 µM; with DU-145 prostate it was 2.4 µM; in the experiment on A498 renal, 2.56 µM; with SR leukemia, 9.92 µM. In addition, the TGI was 3.41 µM in the experiment on NCI-H23 lung, 2.63 µM in the experiment with BT-549 breast, 2.78 µM with SK-MEL-2 melanoma and 2.62 µM in the experiment with U251 CNS.
As to `Cc1nc(N)sc1N=Nc1ccccc1Br`, the TGI in the experiment on NCI-H226 lung was 68.2 µM; in the experiment with MALME-3M melanoma it was 61 µM; with HOP-92 NSCLC it was 46.1 µM; in the experiment with DU-145 prostate, 58.5 µM; in the experiment with A498 renal, 43.2 µM; in the experiment on SR leukemia, above 100 µM. Also, the TGI was found to be 56.3 µM in the experiment with NCI-H23 lung, 46.4 µM in the experiment on BT-549 breast, 55.2 µM in the experiment on SK-MEL-2 melanoma and 52.6 µM with U251 CNS.
In the case of `NC(N)=N/N=C/c1c(Cl)cccc1Cl`, the GI50 with NCI-H226 lung was 24.1 µM; in the experiment with MALME-3M melanoma, 16.2 µM; in the experiment on HOP-92 NSCLC it was 6.66 µM; in the experiment with DU-145 prostate it was 23.1 µM; in the experiment with A498 renal, 3.98 µM; in the experiment with SR leukemia it was 22.2 µM. Besides, the GI50 is 36.5 µM in the experiment on NCI-H23 lung, 16 µM in the experiment with BT-549 breast, 18.5 µM in the experiment on SK-MEL-2 melanoma and 16.3 µM in the experiment with U251 CNS. Moreover, the TGI in the experiment on NCI-H226 lung was above 100 µM; in the experiment on MALME-3M melanoma, 33.5 µM; in the experiment on HOP-92 NSCLC it was 32.7 µM; in the experiment on DU-145 prostate, above 100 µM; with A498 renal, 36.9 µM; with SR leukemia, 56.3 µM. In addition, the TGI with NCI-H23 lung was above 100 µM; in the experiment with BT-549 breast it was 44.9 µM; in the experiment with SK-MEL-2 melanoma, 36.1 µM; in the experiment on U251 CNS it was 33.7 µM.
`O=c1oc2ccc(-c3ccc(F)cc3F)cc2c(=O)n1-c1cccc(C(F)(F)F)c1`: the GI50 in the experiment on NCI-H226 lung is 1.43 µM; with MALME-3M melanoma, 0.785 µM; with HOP-92 NSCLC it was 0.172 µM; in the experiment on DU-145 prostate it was 2.79 µM; in the experiment on A498 renal, 0.21 µM; in the experiment with SR leukemia, 1.31 µM. For the same compound, the GI50 in the experiment with NCI-H23 lung was 0.687 µM; with BT-549 breast, 0.605 µM; with SK-MEL-2 melanoma it was 0.55 µM; in the experiment with U251 CNS, 1.73 µM. Besides, the TGI in the experiment with NCI-H226 lung was 5.19 µM; with MALME-3M melanoma, 4.74 µM; with HOP-92 NSCLC it was 0.931 µM; in the experiment with DU-145 prostate, 16.4 µM; in the experiment on A498 renal, 0.888 µM; with SR leukemia, 6.25 µM. Moreover, the TGI with NCI-H23 lung is 3.59 µM; in the experiment on BT-549 breast it was 3.7 µM; in the experiment on SK-MEL-2 melanoma, 2.85 µM; with U251 CNS, 12.7 µM.
As for `CCOc1ccc(/C=C2\N=C(c3ccc([N+](=O)[O-])cc3)OC2=O)cc1`, the TGI in the experiment with NCI-H226 lung, in the experiment on MALME-3M melanoma, in the experiment with HOP-92 NSCLC, with DU-145 prostate, in the experiment with A498 renal and with SR leukemia was above 100 µM each time. Further, the TGI with NCI-H23 lung, with BT-549 breast, in the experiment on SK-MEL-2 melanoma and in the experiment with U251 CNS was above 100 µM each time.
As to `COc1cc(N(CCC#N)CCC#N)ccc1/C(N=Nc1ccc(Cl)cc1)=N/NC(=O)c1cc(Br)ccc1O`, the GI50 in the experiment with NCI-H226 lung is 32.4 µg/mL; in the experiment on MALME-3M melanoma, above 150 µg/mL; with HOP-92 NSCLC, above 150 µg/mL; in the experiment with DU-145 prostate, 143 µg/mL; with A498 renal, above 150 µg/mL; in the experiment with SR leukemia, 96.3 µg/mL. Besides, the GI50 with NCI-H23 lung is above 150 µg/mL; with BT-549 breast it was 140 µg/mL; in the experiment on SK-MEL-2 melanoma, 146 µg/mL; in the experiment on U251 CNS, 145 µg/mL. Further, the TGI in the experiment with NCI-H226 lung is 128 µg/mL; in the experiment with MALME-3M melanoma it was above 150 µg/mL; with HOP-92 NSCLC, above 150 µg/mL; in the experiment on DU-145 prostate it was above 150 µg/mL; in the experiment with A498 renal it was above 150 µg/mL; in the experiment with SR leukemia, above 150 µg/mL. The TGI with NCI-H23 lung, in the experiment with BT-549 breast, with SK-MEL-2 melanoma and with U251 CNS was above 150 µg/mL each time.
